Laboratory results reported in patent US5922742A, “Pyridinyl-2-cyclopenten-1-ones as selective cyclooxygenase-2 inhibitors” (Merck Frosst Canada, priority 1997, dated 1999).

Tests used:
Cox-1 = molecular target: T1, Cox-1 (Homo sapiens, UniProt P23219); test: Cox-1 U937 (PGE2 synthesis); type: cell-based
T1 construct: human U-937 cells (which specifically express COX-1); endogenous in cells; host or cells: human U-937 cells (whole cells or their microsomes)
Protocol: Compounds are tested as inhibitors of cyclooxygenase activity in whole cell cyclooxygenase assays. Both of these assays measure prostaglandin E2 synthesis in response to AA, using a radioimmunoassay. Cells used for these assays are human osteosarcoma 143 cells (which specifically express COX-2) and human U-937 cells (which specifically express COX-1). […] For cyclooxygenase assays, osteosarcoma cells are cultured in 1 mL of media in 24-well multidishes (Nunclon) until confluent (1-2 ×10^5 cells/well). U-937 cells are grown in spinner flasks and resuspended to a final density of 1.5×10^6 cells/mL in 24well multidishes (Nunclon). Following washing and resuspension of osteosarcoma and U-937 cells in 1 mL of HBSS, 1 μL of a DMSO solution of test compound or DMSO vehicle is added, and samples gently mixed. All assays are performed in triplicate. […] AA (peroxide-free, Cayman Chemical) is prepared as a 10 mM stock solution in ethanol and further diluted 10-fold in HBSS. […] Control samples are incubated with ethanol vehicle instead of AA. Samples are again gently mixed and incubated for a further 10 min. at 37° C. For osteosarcoma cells, reactions are then stopped by the addition of 100 μL of 1N HCl, with mixing and by the rapid removal of the solution from cell monolayers. For U-937 cells, reactions are stopped by the addition of 100 μL of 1N HCl, with mixing. Samples are then neutralized by the addition of 100 μL of 1N NaOH and PGE2 levels measured by radioimmunoassay. Assay of COX-1 Activity from U937 cell microsomes U 937 cells are pelleted by centrifugation at 500×g for 5 min and washed once with phosphate-buffered saline and repelleted. Cells are resuspended in homogenization buffer consisting of 0.1M Tris-HCl, pH 7.4, 10 mM EDTA, 2 μg/ml leupeptin, 2 μg/ml soybean trypsin inhibitor, 2 μg/ml aprotinin and 1 mM phenyl methyl sulfonyl fluoride. The cell suspension is sonicated 4 times for 10 sec and is centrifuged at 10,000×g for 10 min at 4° C. The supernatant is centrifuged at 100,000×g for 1 hr at 4° C. The 100,000×g microsomal pellet is resuspended in 0.1M Tris-HCl, pH 7.4, 10 mM EDTA to approximately 7 mg protein/ml and stored at -80° C. […] Assays are performed in duplicate in a final volume of 250 μl. Initially, 5 μl of DMSO vehicle or drug in DMSO are added to 20 μl of 0.1M Tris-HCl buffer, pH 7.4 containing 10 mM EDTA in wells of a 96-deepwell polypropylene titre plate. 200 μl of the microsomal preparation are then added and pre-incubated for 15 min at room temperature before addition of 25 μl of […] arachidonic acid in 0.1M Tris-HCl and 10 mM EDTA, pH 7.4. Samples are incubated for 40 min at room temperature and the reaction is stopped by the addition of 25 μl of 1N HCl. Samples are neutralized with 25 μl of 1N NaOH prior to quantitation of PGE2 content by radioimmunoassay (Dupont-NEN or Amersham assay kits). Cyclooxygenase activity is defined as the difference between PGE2 levels in samples incubated in the presence of arachidonic acid and ethanol vehicle. Compounds of the present invention are inhibitors of COX-2 and are thereby useful in the treatment of COX-2 mediated diseases as enumerated above. The activities of the compounds against cyclooxygenase may be seen in the representative results shown below. In the assay, inhibition is determined by measuring the amount of prostaglandin E2 (PGE2) synthesized in the presence of AA, COX-1 or COX-2 and a putative inhibitor. […]

Cox-2 = molecular target: T2, Cox-2 (Homo sapiens, UniProt P35354); test: Human whole blood assay, COX-2 (LPS-induced PGE2 production); type: cell-based; conditions: for Selectivity Ratio: Cox-1 U937 IC50 / Cox-2 Whole Blood IC50; for IC50: human whole blood, LPS-induced PGE2, 24 hours at 37° C
T2 construct: active only after incubation of human whole blood with LPS, which induces COX-2; endogenous in cells; host or cells: fresh heparinized human whole blood from volunteers, incubated with LPS
T2 sequence (P35354 18-604): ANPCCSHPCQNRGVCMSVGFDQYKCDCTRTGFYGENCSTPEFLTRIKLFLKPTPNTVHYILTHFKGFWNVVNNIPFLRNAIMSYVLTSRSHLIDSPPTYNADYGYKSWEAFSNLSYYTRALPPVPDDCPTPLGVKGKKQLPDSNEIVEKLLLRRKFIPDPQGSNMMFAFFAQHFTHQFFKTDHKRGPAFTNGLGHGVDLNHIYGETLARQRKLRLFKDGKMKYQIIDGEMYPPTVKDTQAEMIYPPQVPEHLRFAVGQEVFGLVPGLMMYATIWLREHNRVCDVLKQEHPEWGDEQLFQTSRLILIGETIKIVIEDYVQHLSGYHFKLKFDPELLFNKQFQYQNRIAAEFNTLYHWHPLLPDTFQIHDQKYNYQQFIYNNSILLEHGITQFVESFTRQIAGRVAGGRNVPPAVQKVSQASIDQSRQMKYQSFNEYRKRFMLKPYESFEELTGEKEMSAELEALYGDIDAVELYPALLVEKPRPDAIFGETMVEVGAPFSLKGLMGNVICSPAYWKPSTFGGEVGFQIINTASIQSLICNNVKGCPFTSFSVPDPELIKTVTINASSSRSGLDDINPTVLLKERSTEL
Excerpt: As well, platelets in whole blood contain a large amount of the COX-1 enzyme. Immediately following blood clotting, platelets are activated through a thrombin-mediated mechanism. This reaction results in the production of thromboxane B2 (TxB2) via activation of COX-1. Thus, the effect of test compounds on TxB2 levels following blood clotting can be examined and used as an index for COX-1 activity. Therefore, the degree of selectivity by the test compound can be determined by measuring the levels of PGE2 after LPS induction (COX-2) and TxB2 following blood clotting (COX-1) in the same assay.
A. COX-2 (LPS-induced PGE2 production)
Fresh blood is collected in heparinized tubes by venipuncture from both male and female volunteers. The subjects have no apparent inflammatory conditions and have not taken any NSAIDs for at least 7 days prior to blood collection. Plasma is immediately obtained from a 2 mL blood aliquot to use as blank (basal levels of PGE2). The remaining blood is incubated with LPS (100 μg/ml final concentration, Sigma Chem, #L-2630 from E. coli; diluted in 0.1% BSA (Phosphate buffered saline) for 5 minutes at room temperature. Five hundred μL aliquots of blood are incubated with either 2μL of vehicle (DMSO) or 2 μL of a test compound at final concentrations varying from […] to 30μM for 24 hours at 37° C. At the end of the incubation, the blood is centrifuged at 12,000×g for 5 minutes to obtain plasma. A 100μL aliquot of plasma is mixed with 400 μL of methanol for protein precipitation. The supernatant is obtained and is assayed for PGE2 using a radioimmunoassay kit (Amersham, RPA#530) after conversion of PGE2 to its methyl oximate derivative according to the manufacturer's procedure. […]

[1] = test system: carrageenan-induced paw edema in rats; test: Rat paw edema assay (carrageenan); type: in vivo, Male Sprague-Dawley rats; conditions: po, 1 hr before carrageenan, paw volume 3 hr after
Protocol: Male Sprague-Dawley rats (150-200 g) are fasted overnight and are given, po, either vehicle (1% methocel or 5% Tween 80) or a test compound. One hr later, a line is drawn using a permanent marker at the level above the ankle in one hind paw to define the area of the paw to be monitored. The paw volume (V0) is measured using a plethysmometer (Ugo-Basile, Italy) based on the principle of water displacement. The animals are then injected subplantarly with 50 μt of 1% carrageenan solution in saline (FMC Corp, Maine) into the paw using an insulin syringe with a 25-gauge needle (i.e. 500 μg carrageenan per paw). Three hr later, the paw volume (V3) is measured and the increases in paw volume (V3 -V0) are calculated. The animals are sacrificed by CO2 asphyxiation and the absence or presence of stomach lesions scored. Data is compared with the vehicle-control values and percent inhibition calculated. All treatment groups are coded to eliminate observer bias.

T1 sequence (P23219 24-599): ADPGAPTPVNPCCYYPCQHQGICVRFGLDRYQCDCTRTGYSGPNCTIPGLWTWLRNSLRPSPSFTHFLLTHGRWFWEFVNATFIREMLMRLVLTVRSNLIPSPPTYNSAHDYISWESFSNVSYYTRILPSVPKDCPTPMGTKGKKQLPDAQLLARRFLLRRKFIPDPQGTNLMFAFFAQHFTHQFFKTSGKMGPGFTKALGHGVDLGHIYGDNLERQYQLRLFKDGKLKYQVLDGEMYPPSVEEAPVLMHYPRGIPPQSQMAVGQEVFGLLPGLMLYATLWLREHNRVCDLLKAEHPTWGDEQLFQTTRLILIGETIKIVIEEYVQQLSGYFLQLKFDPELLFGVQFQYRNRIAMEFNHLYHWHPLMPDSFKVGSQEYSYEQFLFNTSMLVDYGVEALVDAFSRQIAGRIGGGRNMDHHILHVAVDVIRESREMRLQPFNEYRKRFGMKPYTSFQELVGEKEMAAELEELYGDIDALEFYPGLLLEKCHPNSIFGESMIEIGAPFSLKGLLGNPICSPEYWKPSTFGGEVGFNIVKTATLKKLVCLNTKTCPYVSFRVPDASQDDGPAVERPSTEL

Row | IC50 (Cox-1) [nM] | Selectivity Ratio (Cox-2) | IC50 (Cox-2) [nM] | Structure (SMILES) | ED50 [1] [mg/kg]
1 | 1900 | 10 | 190 | CS(=O)(=O)c1ccc(C2=C(c3ccccc3)C(=O)CC2)cc1 [B] | 10
2 |  | 5 | 90 | CS(=O)(=O)c1ccc(C2=C(c3ccc(F)cc3)C(=O)CC2)cc1 [A] | 3
3 | 30000 | 52 | 580 | CS(=O)(=O)c1ccc(C2=C(c3cccnc3)C(=O)CC2)cc1 [Example 1, 3-(4-(Methylsulfonyl)phenyl)-2-(3-pyridinyl)-2-cyclopenten-1-one] | 1.7
4 | 600 | 1 | 590 | CS(=O)(=O)c1ccc(C2=C(c3ccc4cccnc4c3)C(=O)OC2)cc1 [C] | 
5 | 36000 | 78 | 460 | CS(=O)(=O)c1ccc(C2=C(c3ccc(Cl)cn3)C(=O)CC2)cc1 [Example 10, 2-(5-Chloro-2-pyridinyl)-3-(4-(methylsulfonyl)phenyl)-2-cyclopenten-1-one] | 2.5
6 | > 100000 |  |  | CS(=O)(=O)c1ccc(C2=C(c3cncc(Cl)c3)C(=O)CC2)cc1 [Example 2, 2-(5-Chloropyridin-3-yl)-3-(4-(methylsulfonyl)phenyl)-2-cyclopenten-1-one] | 
